Where “and” joins values, the source holds several entries; their conditions need not be identical. Identical values can stand only once.

Series [1] addresses T1, human FABP3 (Homo sapiens, UniProt P05413).
T1 construct: His-tag (N); TEV cleavage site (N); made in house; host or cells: E. coli BL21(DE3)
The experiment in a line: ITC assay of ligand binding to apo-FABP3. The settings on record: KPi pH 7.6, 25 °C; for N (stoichiometry): protein assumed 100% active and delipidated. As to the method:
ITC experiments were carried out on the MicroCal™ iTC200 instrument (Malvern Instruments Ltd., Malvern, UK). Experiments were performed in KPi buffer without and with 0.1% (v/v) TX supplement. […] Experiments for the determination of the ΔCp were performed at three different temperatures: 16, 25, and 37 °C. […] Every titration started with a small 0.3 μL injection introduced to compensate for the diffusion effects. One of the following injection profiles was chosen based on the activity of the ligand and binding heat released: 1.2 μL × 32 or 1.5 μL × 26—all with 120 s time spacing between every injection and 600 rpm. Each ligand was titrated at least two times. The reference baseline consisting of small peaks of identical size (titration of the corresponding ligand into the buffer) was subtracted from the data before fitting to correct for the heat of the ligand dilution. The first injection was excluded from each dataset. The final data were fitted to a theoretical titration curve (one set of sites fitting model) using MicroCal Origin 7 SR4 software (OriginLab, Northampton, MA, USA).
Background: ITC needs no label: the signal is the heat of the interaction.

Series [2] concerns the target T1, human FABP3. Nature of the series: ITC determination of heat capacity change at 16, 25 and 37 °C. It counts as binding. To be noted: ΔH at 16, 25, 37 °C, linear regression. The source says:
Heat capacity changes, ΔCp, are important indicators of the structural changes during ligand-to-protein binding in various environmental conditions and may reflect changes in the static and dynamic properties of the protein [33, 34]. Moreover, it may represent interactions with extra supplements, such as salts and detergents, and larger processes, such as changes in protein folding, solvent-accessible surface area (SASA), or protonation states within the active site. […] Thermodynamic parameters for the remaining LCFAs were determined in the KPi + TX buffer, while LCACs were tested in the KPi buffer without any additive. Figure 7 represents an example of the overlays of the ITC experiments for C18:1(n-9)c and the corresponding LCAC performed at the following temperatures: 16, 25, and 37 °C.
(§1) ITC experiments were carried out on the MicroCal™ iTC200 instrument (Malvern Instruments Ltd., Malvern, UK). Experiments were performed in KPi buffer without and with 0.1% (v/v) TX supplement. All titrations except for the determination of the heat capacity, ΔCp, were performed at 25 °C using 20–120 μM protein. Experiments for the determination of the ΔCp were performed at three different temperatures: 16, 25, and 37 °C. 280 μL of the protein solution in the sample cell were titrated with the ligand solution diluted to 200–1200 μM depending on the enzyme concentration (to achieve a 1:10 or 1:5 ratio). Every titration started with a small 0.3 μL injection introduced to compensate for the diffusion effects. One of the following injection profiles was chosen based on the activity of the ligand and binding heat released: 1.2 μL × 32 or 1.5 μL × 26—all with 120 s time spacing between every injection and 600 rpm. Each ligand was titrated at least two times. The reference baseline consisting of small peaks of identical size (titration of the corresponding ligand into the buffer) was subtracted from the data before fitting to correct for the heat of the ligand dilution. The first injection was excluded from each dataset. The final data were fitted to a theoretical titration curve (one set of sites fitting model) using MicroCal Origin 7 SR4 software (OriginLab, Northampton, MA, USA).

Series [3] deals with T1, human FABP3. The experiment in a line: Ligand binding by NMR (2D 1H-15N HSQC chemical shift perturbations). The settings on record: KPi buffer pH 7.6. On the procedure:
NMR spectra were acquired on the 600 MHz Bruker Avance Neo spectrometer (Bruker Biospin GmbH, Rheinstetten, Germany) equipped with a 5-mm quadruple-resonance CryoProbe (QCI) with z-gradients. […] All experiments were performed in KPi buffer without or with TX and with the addition of 7% (v/v) D2O, 0.03% (v/v) NaN3, and 0.01% (v/v) SigmaFAST EDTA-free protease inhibitor cocktail to prevent protein degradation. The amount of organic solvent (ethanol or DMSO-d6) was below 2% (v/v) in each experiment.
3D HNCA, 3D HNCO, 3D HN(CA)CO, and 3D CBCA(CO)NH spectra were acquired for the backbone assignment. 3D [^1H,^1H]-nuclear Overhauser spectroscopy (NOESY)-^15N-heteronuclear single-quantum correlation (HSQC) spectrum was acquired using a mixing time of 100 ms and also used in the backbone assignment. 2D ^1H-^15N HSQC spectra were acquired for evaluation of the CSPs caused by the lipid binding. Chemical shifts were referenced internally to the residual water signal at 4.70 ppm relative to the 4,4-dimethyl-4-silapentane-1-sulfonic acid (DSS). […] Other complexes were analyzed by analogy and with the help of 3D [^1H-^1H]-NOESY-^15N-HSQC. All spectra were processed in TopSpin v. 4.1.1. (Bruker, Billerica, MA, USA) and analyzed in CARA 1.9.1. software. Residue-specific protein backbone amide assignment was performed based on the published chemical shifts. CSPs, Δδ, were calculated using Equation (1) with the scaling factor, α, which was set to 0.1 [67, 68]. (1) Δδ=1/2[δH2+α·δN^2],

Series [4] in a line: LCAC cytotoxicity assay (MTT) in FABP3-overexpressing PANC-1 cells. The series is classed as cell-based. To be noted: human, 40 μM C16:0-carnitine, cells transfected with the FABP3 plasmid, read-out: cell viability. The source says:
Cells were left to attach to the plate overnight.
Briefly, the cell media were removed from the wells.
Next, we tested whether overexpression of FABP3 could result in protective effects regarding the cell viability of the PANC-1 cells. The commercially available FuGENE® HD transfection reagent (Promega Corporation, Madison, WI, USA) was mixed with the FABP3 (NM_010174) mouse tagged ORF clone plasmid (OriGene Technologies, Inc., Rockville, MD, USA) in a 4:1 ratio for transfection according to the manufacturer’s protocol. Transfection was performed for 24 h in 6-well plates. To ensure transfection efficiency, quantitative PCR (qPCR) and Western blot analysis were performed (see Figures S52 and S53). Transfected PANC-1 cells were transferred to 96-well plates and further examined for C16:0-carnitine toxicity at various concentrations as previously described. The obtained results were compared to the effects in native cells.

A further series in a line: in vitro. To be noted: human.
For series [5], the target named is T1, human FABP3. The experiment in a line: ITC competitive binding experiments (FABP3 pre-saturated with a competing ligand). The settings on record: 25 °C. On the procedure: as §1, with “The final data were fitted to a theoretical titration curve (one set of sites fitting model) using MicroCal Origin 7 SR4 software (OriginLab, Northampton, MA, USA).” left out
The mark [6] stands for this setting: FABP3 saturated with C18:1(n-9)t-carnitine, titrated with the FA, KPi without TX, Competitive Binding model.
Where [7] appears, read: FABP3 saturated with C18:1(n-9)t-carnitine, titrated with the FA, KPi without TX, One Set of Sites model.
[8] abbreviates: FABP3 saturated with C8:0, titrated with C18:1(n-9)t-carnitine, KPi, Competitive Binding model.
The mark [9] stands for this setting: FABP3 saturated with C8:0, titrated with C18:1(n-9)t-carnitine, KPi, One Set of Sites model.

T1 sequence (P05413 whole entry): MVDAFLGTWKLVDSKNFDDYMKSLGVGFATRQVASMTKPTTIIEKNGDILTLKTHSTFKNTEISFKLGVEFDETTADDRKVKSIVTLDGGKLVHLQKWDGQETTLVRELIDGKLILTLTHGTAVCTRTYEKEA
Description for in vitro: PANC-1 (ATCC® CRL-1469™) pancreatic epithelial carcinoma cells were obtained from ATCC® (Manassas, VA, USA). PANC-1 cells were chosen as they are suitable for transfection and are characterized by low endogenous expression levels of FABP3. The cells were grown in Dulbecco’s Modified Eagle’s Medium (DMEM) supplemented with 10% (v/v) fetal bovine serum (FBS) and 1% (v/v) penicillin/streptomycin (Pen/Strep) at 37 °C in a humidified incubator with 5% CO2. All reagents for cell maintenance were purchased from Thermo Fisher Scientific. For experiments, PANC-1 cells were seeded at density 1 × 10^5 cells∙mL^−1 (100 μL per well) in the 96-well plate. Cells were left to attach to the plate overnight. Briefly, before the experiment, PANC-1 cells in 96-well plates were washed with Hanks’ Balanced Salt Solution (HBSS) several times. For all cell experiments, serum-free DMEM media were used.
Briefly, the cell media were removed from the wells. A solution of MTT was added to each well at the concentration of 1 mg∙mL^−1. The plate was incubated for 2 h at 37 °C. Then the MTT solution was removed and 100 μL of isopropyl alcohol was added to each well to dissolve the formazan crystals produced by living cells. The plate was then measured by the Hidex plate reader (Hidex Oy, Turku, Finland).

A word on the Kd: it is the equilibrium constant for the complex coming apart. Read a high Kd as weaker binding. Consider `CCCCCCCC/C=C\CCCCCCCC(=O)O[C@H](CC(=O)O)C[N+](C)(C)C.[Cl-]` [C18:1(n-9)c-carnitine, oleoylcarnitine], for which, at human FABP3 [1] (without TX), the Kd amounted to 2.21 ± 0.07 µM, the ΔG is -7.72 ± 0.01 kcal/mol, the ΔH was -4.6 ± 0.2 kcal/mol and the “−TΔS” value is -3.1 ± 0.2 kcal/mol. Further, at human FABP3 [1] (without TX), the “N (stoichiometry)” value was determined as 0.5. Moreover, the ΔCp at human FABP3 [2] (KPi without TX) is on record as −0.09 ± 0.01 kcal∙mol^−1∙K^−1. Also, at human FABP3 [3], the “binding to FABP3 by NMR (CSPs in 2D 1H-15N HSQC)” value (“binding to FABP3 by NMR” for short) is reported as “strong CSPs indicative of binding”.

For orientation: viability means a read-out of living cells in per cent, often relative to untreated cells. On to `CCCCCCCCCCCCCCCC(=O)O[C@H](CC(=O)[O-])C[N+](C)(C)C` [C16:0-carnitine], for which, in series [4], the viability at 4 h, 40 μM was about 70%. In “in vitro”, this molecule had a CC50 at 4 h of about 25 µM and a viability at 4 h, 40 μM of under 20%. Besides, the “binding to FABP3 by NMR” value at human FABP3 [3] is listed as “did not show any significant CSPs”.

Take `CC/C=C\C/C=C\C/C=C\C/C=C\C/C=C\CCCC(=O)O[C@H](CC(=O)O)C[N+](C)(C)C` [C20:5(n-3)c-carnitine, EPA-carnitine]: on human FABP3 [1] (without TX), the affinity, expressed as Kd, was 14.83 ± 0.08 µM; the ΔG is -6.61 ± 0.03 kcal/mol; the ΔH is -2.43 ± 0.09 kcal/mol; the “−TΔS” value was -4.19 ± 0.06 kcal/mol. At human FABP3 [1] (without TX), the “N (stoichiometry)” value is given as 1.0. The molecule also yielded a ΔCp at human FABP3 [2] (KPi without TX) of −0.07 ± 0.01 kcal∙mol^−1∙K^−1. At human FABP3 [3], the “binding to FABP3 by NMR” value was “strong CSPs indicative of binding”.

For `CCCCCCCCCCCC(=O)O` [C12:0, laurate], on human FABP3 [1] (with 0.1% TX), binding was characterised by a dissociation constant (Kd) of 0.57 ± 0.06 µM, the ΔG was -8.54 ± 0.06 kcal/mol, the ΔH was -14.5 ± 0.4 kcal/mol and the “−TΔS” value was 6.0 ± 0.3 kcal/mol. For the same molecule, the “N (stoichiometry)” value at human FABP3 [1] (with 0.1% TX) is listed as 1.0. Also, at human FABP3 [1] (without TX), the Kd was determined as 0.2 ± 0.02 µM, the ΔG was -9.12 ± 0.06 kcal/mol, the ΔH was -8.60 ± 0.08 kcal/mol and the “−TΔS” value was -0.53 ± 0.02 kcal/mol. For the same molecule, the “N (stoichiometry)” value at human FABP3 [1] (without TX) is on record as 1.0. Moreover, at human FABP3 [2] (KPi without TX), the ΔCp was −0.33 kcal∙mol^−1∙K^−1 and −0.33 ± 0.01 kcal∙mol^−1∙K^−1. At human FABP3 [5] (setting [6]), the “-TΔS” value was -0.4 ± 1.1 kcal/mol, the ΔG was -12.5 ± 0.9 kcal/mol and the ΔH is -12.1 ± 0.2 kcal/mol. Further, at human FABP3 [5] (setting [7]), the “-TΔS” value is -1.0 ± 0.1 kcal/mol, binding was characterised by a dissociation constant (Kd) of 0.36 ± 0.03 µM, the ΔG was -8.80 ± 0.04 kcal/mol and the ΔH was -7.8 ± 0.2 kcal/mol.

As for `CCCCCCCC/C=C\CCCCCCCC(=O)O` [C18:1(n-9)c, oleate], at human FABP3 [1] (with 0.1% TX), binding was put at a Kd of 0.29 ± 0.03 µM, the ΔG was -8.93 ± 0.06 kcal/mol, the ΔH is -10.0 ± 0.4 kcal/mol and the “−TΔS” value came out at 1.1 ± 0.5 kcal/mol. For the same molecule, the “N (stoichiometry)” value on human FABP3 [1] (with 0.1% TX) was determined as 1.0. Further, the ΔCp at human FABP3 [2] (KPi with 0.1% TX) is given as −0.29 ± 0.06 kcal∙mol^−1∙K^−1.

For the molecule `CCCCCCCC/C=C/CCCCCCCC(=O)O[C@H](CC(=O)O)C[N+](C)(C)C` [C18:1(n-9)t-carnitine, elaidoylcarnitine], on human FABP3 [1] (without TX), the Kd was 2.2 µM and 2.19 µM; the ΔG was -7.72 ± 0.02 kcal/mol; the “N (stoichiometry)” value came to 0.5. Also, at human FABP3 [2] (KPi without TX), the ΔCp is −0.14 ± 0.01 kcal∙mol^−1∙K^−1. At human FABP3 [5] (setting [8]), the “-TΔS” value came out at 0.32 ± 0.09 kcal/mol, the ΔG was -11.7 ± 0.1 kcal/mol and the ΔH is -12.0 ± 0.3 kcal/mol. In addition, on human FABP3 [5] (setting [9]), the “-TΔS” value is -5.8 ± 0.3 kcal/mol, the Kd worked out at 1.8 ± 0.2 µM, the ΔG is -7.85 ± 0.08 kcal/mol and the ΔH is -2.0 ± 0.2 kcal/mol. Also, on human FABP3 [5] (FABP3 saturated with C10:0, titrated with C18:1(n-9)t-carnitine, KPi), the “binding heat effects in competition titration” value was “no binding heat effects were detected”. For the same molecule, the “binding to FABP3 by NMR” value at human FABP3 [3] is listed as “strong CSPs indicative of binding”.

Source of the values: publication PMC10058761, “Heart-Type Fatty Acid Binding Protein Binds Long-Chain Acylcarnitines and Protects against Lipotoxicity” (International Journal of Molecular Sciences, 2023).
